# Reference: US11752117B2, “Methods and compositions for diagnosing and treating glaucoma” (priority 2017, dated 2023)
# Where “and” joins values, the source holds several entries; their conditions need not be identical. Equal values may be shown once.
# Legend:
# [1] = test system: rabbits; assay: Effect of KATP channel blockers and openers on intraocular pressure in rabbits; format: in vivo; settings: 800 μg of blockers, within 1 hour
# From the text: Tolbutamide, a well-known and world-wide clinically approved drug to treat Type II diabetes, was used as the prototype blocker of the KATP channel. […] Tolbutamide solution decreased IOP not only in glaucomatous patients, but also in patients with elevated IOP after cataract surgery.
# [2] = test system: sulfonylurea receptor in trabecular meshwork cells; assay: 3H-glibenclamide binding and displacement, bovine trabecular meshwork cells
# Method: FIG. 1 depicts, in accordance with embodiments herein, binding of ^3H-glibenclamide to bovine trabecular meshwork cells (2.5×10^5 per 0.5 ml of reaction mixture) at various concentrations of ligand. Red: non-specific binding; green: specific binding. Shown is mean±SD.
# (§1) FIG. 2 depicts, in accordance with embodiments herein, displacement of ^3H-glibenclamide bound to trabecular meshwork cells (green) and RIN-m5F cells (red) by tolbutamide.
# Non-specific binding was determined as the residual binding in the presence of 20 μM non-labeled glibenclamide. After 2 hrs incubation, ^3H-bound glibenclamide was separated from free ^3H-glibenclamide on Whatman GF/F filters soaked in incubation buffer. Specific binding as calculated as the difference between binding in the absence and presence of non-labeled […] glibenclamide (FIG. 1).
# [3] = test system: human trabecular meshwork cell; assay: 86Rb efflux from human trabecular meshwork cells; format: cell-based
# From the text: FIG. 3 depicts, in accordance with embodiments herein, effect of glybenclamide on the efflux of ^86Rb from human trabecular meshwork cell.
# FIG. 4 depicts, in accordance with embodiments herein, effect of chlorpromazine on the efflux of ^86Rb from human trabecular meshwork cell.
# [4] = test system: glaucoma patients; assay: Extended twice-daily 0.4% tolbutamide treatment, IOP of glaucoma patients; format: in vivo, human
# Method: FIG. 5 depicts, in accordance with embodiments herein, long-term effect of 0.4% tolbutamide treatment on IOP of a human subject. […] The bottles were color-coded and the patient was not aware of which bottle contained the drug and which contained the vehicle. The patient and the technician measuring the patient's IOP was not aware of which bottle contained the drug and which contained the vehicle
# (§2) On days 1 through 5, IOP was measured at 8:00 A.M., 1 drop of 0.4% Tolbutamide suspended in buffered PBS (pH 6.7) was instilled to the right eye and IOP measured at the indicated times. A second drop was administered at 10:00 PM. All measurements and drug administrations were done in the hospital. The bottles were color-coded and the patient was not aware of which bottle contained the drug and which contained the vehicle. […]
# b. Effect of 0.4% tolbutamide on human subjects for an extended time. To determine whether longer-term treatment with tolbutamide lowered TOP without any significant side effects, […] patient was treated with one drop of 0.4% tolbutamide twice daily (FIGS. 5-7) as shown in the figures. Vials containing drug and vehicle were color-coded by the manufacturing facility; the patient, the nurse and the investigator were not aware which vial contained the drug and which vial contained the vehicle.
# as §2, with “hospital, since” for “hospital. The bottles were color-coded and”, “admitted for an unrelated condition.” for “not aware of which bottle contained the drug and which contained the vehicle.”
# [5] = test system: ocular hypertensive patient; assay: Fluorophotometry of aqueous humor inflow and outflow facility; format: in vivo, human
# Method: Thus, they investigated whether one drop of […] tolbutamide would affect aqueous dynamics using fluorophotometry to measure aqueous production and outflow.
# Fluorophotometry. To define the mechanism of action of tolbutamide, measurements of aqueous dynamics were done on patient 2 (See FIG. 6). For this study TOP and rate of aqueous formation were measured at 9:00 A.M. The patient was asked to apply one drop of drug to the right eye at 9:15 A.M. and one at 10:00 P.M. for 3 days. On the morning of the fourth day TOP and rate of aqueous formation were again measured.
# Facility of Outflow (C) was calculated after Goldman:
# [formula] where IOPt is the intraocular pressure in mmHg at the time the rate of inflow is measured. Episcleral pressure for this patient was estimated at 9 mmHg.
# [6] = target: T1, sulfonylurea receptor of RIN-m5F cells (Rattus norvegicus, UniProt Q09429); assay: 3H-glibenclamide displacement, RIN-m5F cells; format: binding; settings: compared with bovine TM cells
# T1 construct: displacement of ^3H-glibenclamide by tolbutamide in bovine trabecular meshwork cells and RIN-m5F cells; host or cells: RIN-m5F rat insulinoma cells
# From the text: as §1
# [7] = test system: patients; assay: Adverse ocular effects of tolbutamide eye drops
# From the text: Specifically, patients were monitored for discomfort, ocular pain, tearing, photophobia, erythema, swelling, discharge and scaling, palpebral conjunctival inflammation, bulbar conjunctival inflammation; limbal inflammation, corneal epithelial changes and focal stromal infiltrates. Symptoms were classified as 0=normal; 1=mild; 2=moderate; and 3=severe.
# [8] = test system: normal cynomologus monkeys; assay: Effect of tolbutamide on IOP of normal cynomologus monkeys; format: in vivo; settings: for IOP 1 hour post-treatment OD(treated): ketamine anesthesia
# Method: Effect of Tolbutamide on TOP of Normal Cynomologus Monkeys: Formulations of the KA channel inhibitor tolbutamidewere tested as a suspension and as a solution for its ability to lower intraocular pressure in normal cynomologus monkeys. For the suspension, 0.4% tolbutamide was prepared in NaCl/borate buffer (0.8 mg NaCl, 1.0 mg boric acid, pH 7.2, water to 1 ml; for the solution, 0.4% tolbutamide was solubilized in 0.25 M NaOH and added to 0.4% hypromellose (HPMC) and the pH adjusted to 6.7. Tonicity was adjusted to 300 mOSm with NaCl and preserved with 0.001% thimerosal. The suspension and solution were tested as follows: Monkeys were anesthetized with ketamine hydrochloride and the baseline IOP determined. One drop of drug was administered to the right eye and the IOP determined 1 hour later, while the animals were still under anesthesia; the left eye served as a control. Two animals for each treatment were used. The decrease in IOP in the untreated eye is the result of anesthesia.
# [9] = test system: patients with elevated IOP; assay: Effect of one drop of 0.4% tolbutamide on IOP in human subjects; format: in vivo; settings: for effect on IOP: glaucomatous patients and patients with elevated IOP after cataract surgery (lens extraction)
# Method: a. Effect of 1 drop of 0.4% tolbutamide. Three patients with elevated TOP, due to exfoliative glaucoma, to POAG and to the increase in TOP that occurs in some patients following lens extraction, were treated with one drop of 0.4% tolbutamide solution. TOP was measured at “0” time and at one hour intervals for 5 hours (when possible) by a nurse while the patient was in the hospital.
# [10] = Patient 2, 0.4% in PBS pH 6.7 twice daily, Day 1 6:30 PM
# [11] = Patient 2, 0.4% in PBS pH 6.7 twice daily, Day 2 4:00 PM
# [12] = Patient 2, 0.4% in PBS pH 6.7 twice daily, Day 2 8:00 AM
# [13] = Patient 2, 0.4% in PBS pH 6.7 twice daily, Day 2 8:00 PM
# [14] = Patient 2, 0.4% in PBS pH 6.7 twice daily, Day 3 4:00 PM
# [15] = Patient 2, 0.4% in PBS pH 6.7 twice daily, Day 3 8:00 AM
# [16] = Patient 2, 0.4% in PBS pH 6.7 twice daily, Day 3 8:00 PM
# [17] = Patient 2, 0.4% in PBS pH 6.7 twice daily, Day 4 4:00 PM
# [18] = Patient 2, 0.4% in PBS pH 6.7 twice daily, Day 4 8:00 AM
# [19] = Patient 2, 0.4% in PBS pH 6.7 twice daily, Day 4 8:00 PM
# [20] = Patient 2, 0.4% in PBS pH 6.7 twice daily, Day 5 2:00 PM
# [21] = Patient 2, 0.4% in PBS pH 6.7 twice daily, Day 5 8:00 AM
# [22] = after 3 days, one drop of 0.5% solution to the eye twice daily
# T1 sequence (Q09429 whole entry): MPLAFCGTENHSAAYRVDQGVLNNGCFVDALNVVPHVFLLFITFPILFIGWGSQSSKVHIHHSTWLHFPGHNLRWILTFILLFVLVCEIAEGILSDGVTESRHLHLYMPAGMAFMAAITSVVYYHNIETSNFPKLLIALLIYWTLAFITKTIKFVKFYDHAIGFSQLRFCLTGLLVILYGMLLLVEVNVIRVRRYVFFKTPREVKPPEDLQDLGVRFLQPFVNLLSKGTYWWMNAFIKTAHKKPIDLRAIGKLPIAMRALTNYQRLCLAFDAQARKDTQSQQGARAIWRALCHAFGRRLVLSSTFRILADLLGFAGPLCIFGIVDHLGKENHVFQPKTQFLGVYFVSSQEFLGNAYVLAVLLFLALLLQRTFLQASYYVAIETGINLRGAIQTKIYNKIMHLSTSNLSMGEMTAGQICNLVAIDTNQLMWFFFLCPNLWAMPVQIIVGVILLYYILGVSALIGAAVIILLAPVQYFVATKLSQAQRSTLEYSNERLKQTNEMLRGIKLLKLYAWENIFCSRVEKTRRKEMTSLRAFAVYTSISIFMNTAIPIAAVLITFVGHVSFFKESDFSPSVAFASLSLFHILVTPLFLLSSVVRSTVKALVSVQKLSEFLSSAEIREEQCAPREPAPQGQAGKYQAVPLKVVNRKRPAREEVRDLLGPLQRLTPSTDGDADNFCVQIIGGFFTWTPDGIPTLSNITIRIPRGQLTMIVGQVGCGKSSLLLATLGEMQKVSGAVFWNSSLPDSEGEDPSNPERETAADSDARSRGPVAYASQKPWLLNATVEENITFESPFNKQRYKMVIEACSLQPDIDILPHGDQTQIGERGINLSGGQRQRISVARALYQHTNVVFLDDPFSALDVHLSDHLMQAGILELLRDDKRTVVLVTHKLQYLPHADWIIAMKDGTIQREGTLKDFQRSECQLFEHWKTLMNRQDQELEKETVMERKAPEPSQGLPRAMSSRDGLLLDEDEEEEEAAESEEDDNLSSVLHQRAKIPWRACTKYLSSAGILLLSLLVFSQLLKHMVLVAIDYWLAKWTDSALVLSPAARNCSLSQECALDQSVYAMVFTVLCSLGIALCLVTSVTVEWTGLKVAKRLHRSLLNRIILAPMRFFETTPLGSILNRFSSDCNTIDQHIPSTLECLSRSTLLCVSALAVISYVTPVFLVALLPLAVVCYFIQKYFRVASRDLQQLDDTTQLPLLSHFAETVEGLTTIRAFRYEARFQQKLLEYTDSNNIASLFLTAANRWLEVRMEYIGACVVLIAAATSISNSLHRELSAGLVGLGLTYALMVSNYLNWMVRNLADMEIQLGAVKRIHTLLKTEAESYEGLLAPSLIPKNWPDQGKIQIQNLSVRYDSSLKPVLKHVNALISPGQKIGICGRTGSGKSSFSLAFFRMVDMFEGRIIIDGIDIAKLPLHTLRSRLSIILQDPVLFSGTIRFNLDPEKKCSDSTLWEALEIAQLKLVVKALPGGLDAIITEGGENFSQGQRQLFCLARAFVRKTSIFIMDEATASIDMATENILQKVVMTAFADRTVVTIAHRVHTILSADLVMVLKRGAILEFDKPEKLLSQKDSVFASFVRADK
# T1 sequence (P70673 whole entry partner): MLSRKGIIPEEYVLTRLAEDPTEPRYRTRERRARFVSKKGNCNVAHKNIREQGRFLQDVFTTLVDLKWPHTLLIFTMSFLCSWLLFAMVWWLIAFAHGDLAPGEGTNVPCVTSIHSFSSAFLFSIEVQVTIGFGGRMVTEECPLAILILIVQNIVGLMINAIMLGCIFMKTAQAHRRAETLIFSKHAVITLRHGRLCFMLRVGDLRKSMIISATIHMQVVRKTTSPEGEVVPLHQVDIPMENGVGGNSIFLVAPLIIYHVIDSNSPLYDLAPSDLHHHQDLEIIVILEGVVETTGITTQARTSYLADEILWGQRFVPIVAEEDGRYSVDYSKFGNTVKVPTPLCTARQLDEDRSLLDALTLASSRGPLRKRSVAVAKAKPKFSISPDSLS
structure (smiles),measurement,setting,value
CCCNC(=O)NS(=O)(=O)c1ccc(Cl)cc1 [chlorpropanamide],effect on intraocular pressure,[1],decreased IOP
CC1=NS(=O)(=O)c2cc(Cl)ccc2N1 [diazoxide],effect on intraocular pressure,[1],increased IOP significantly
"COc1ccc(Cl)cc1C(=O)NCCc1ccc(S(=O)(=O)NC(=O)NC2CCCCC2)cc1 [Glybenclamide, glibenclamide]",binding of 3H-glibenclamide to trabecular meshwork cells,"[2]; on ice, 2 hrs incubation",have a receptor for glybenclamide
same,potassium efflux from trabecular meshwork cells as indicated by 86Rubidium efflux,[3],inhibit potassium efflux
same,inhibition at 0.01 µM,"[3]; Homo sapiens, at 10 nM, dose dependent",50%
same,effect on intraocular pressure,[1],decreased IOP
"CN(C)CCCN1c2ccccc2Sc2ccc(Cl)cc21 [Chlorpromazine, chlorpromazine]",potassium efflux from trabecular meshwork cells as indicated by 86Rubidium efflux,[3],inhibit potassium efflux
same,inhibition at 1 µM,"[3]; Homo sapiens, at 1 μM, dose dependent",20%
"CCCCNC(=O)NS(=O)(=O)c1ccc(C)cc1 [Tolbutamide, tolbutamide]",long-term effect on IOP,"[4]; Patient 1 (high IOP, no visual field loss), 0.4% suspended in PBS pH 6.7, right eye twice daily, days 1-6, first day IOP remained high",decreased significantly during the next 5 days
same,IOP OD (treated),"[4]; Patient 2 (refractory to Timolol), 0.4% in PBS pH 6.7 twice daily, Day 1 6:00 PM, Day 1 4:00 PM value 31",21 mm Hg
same,IOP OD (treated) % Change,"[4]; Patient 2, 0.4% in PBS pH 6.7 twice daily, Day 1 6:00 PM",−32%
same,IOP OD (treated),[4]; [10],18 mm Hg
same,IOP OD (treated) % Change,[4]; [10],−42%
same,IOP OD (treated),[4]; [11],27 mm Hg
same,IOP OD (treated) % Change,[4]; [11],−13%
same,IOP OD (treated),[4]; [12],16 mm Hg
same,IOP OD (treated) % Change,[4]; [12],−48%
same,IOP OD (treated),[4]; [13],28 mm Hg
same,IOP OD (treated) % Change,[4]; [13],−10%
same,IOP OD (treated),[4]; [14],22 mm Hg
same,IOP OD (treated) % Change,[4]; [14],−29%
same,IOP OD (treated),[4]; [15],20 mm Hg
same,IOP OD (treated) % Change,[4]; [15],−35%
same,IOP OD (treated),[4]; [16],21 mm Hg
same,IOP OD (treated) % Change,[4]; [16],−32%
same,IOP OD (treated),[4]; [17],22 mm Hg
same,IOP OD (treated) % Change,[4]; [17],−29%
same,IOP OD (treated),[4]; [18],18 mm Hg
same,IOP OD (treated) % Change,[4]; [18],−42%
same,IOP OD (treated),[4]; [19],24 mm Hg
same,IOP OD (treated) % Change,[4]; [19],−23%
same,IOP OD (treated),[4]; [20],23 mm Hg
same,IOP OD (treated) % Change,[4]; [20],−26%
same,IOP OD (treated),[4]; [21],17 mm Hg
same,IOP OD (treated) % Change,[4]; [21],−45%
same,effect on IOP,"[4]; glaucoma patients, 1 drop (250 μg) twice daily, 6 days of the study",decreased IOP
same,increase of aqueous production,[5]; 0.4%,150%
same,increase of outflow via the trabecular meshwork-Schlemm's canal complex,[5]; 0.4%,350%
same,net outflow increase,[5]; 0.4%,200%
same,increase of aqueous formation,[5]; [22],approximately 150%
same,increase of outflow via the trabecular meshwork/Schlemm's canal,[5]; [22],350%
same,Inflow OD Post-treatment,"[5]; patient 2, one drop right eye twice daily for 3 days, morning of fourth day, Pre-Treatment 1.9",3.0 µL/min
same,IOP OD Post-treatment,"[5]; patient 2, one drop right eye twice daily for 3 days, morning of fourth day, Pre-Treatment 22",15 mmHg
same,Outflow Facility OD Post-treatment,"[5]; patient 2, one drop right eye twice daily for 3 days, calculated after Goldman, episcleral pressure 9 mmHg, Pre-Treatment 0.146",0.50 μl/min/mmHg
same,kinetics of displacement of 3H-glibenclamide by tolbutamide,"[2]; bovine TM cells, compared with RIN-m5F cells",same kinetics
same,kinetics of displacement of 3H-glibenclamide by tolbutamide,[6],same kinetics
same,severe symptoms of ocular toxicity,"[7]; all patients, any time during the study",free of severe symptoms
same,"symptoms of ocular toxicity, classification","[7]; drops to the eye, all cases",0-1
same,IOP 1 hour post-treatment OD(treated),"[8]; 0.4% solution in 0.4% HPMC pH 6.7, one drop right eye",22 mmHg and 17 mmHg
same,IOP 1 hour post-treatment OD(treated),"[8]; 0.4% suspension in NaCl/borate buffer, one drop right eye",15 mmHg and 18 mmHg
same,effect on IOP,"[8]; cynomolgous monkeys, 500 μg, short-term 1-hour studies",decreased TOP
same,IOP spike that occurs following cataract surgery,[9]; 0.4%,prevents the IOP spike
same,lowering of intraocular pressure,"[9]; 0.4%, primary open angle glaucoma and exfoliative glaucoma patients",25-50%
same,IOP,"[9]; Patient 1 Exfoliative Glaucoma of OD, OD, 2 hrs after one drop 0.4% solution, pre-treatment 48",44 mm of Hg
same,IOP,"[9]; Patient 1 Exfoliative Glaucoma of OD, OD, 3 hrs after one drop 0.4% solution, pre-treatment 48",32 mm of Hg
same,IOP,"[9]; Patient 1 Exfoliative Glaucoma of OD, OD, 4 hrs after one drop 0.4% solution, pre-treatment 48",30 mm of Hg
same,IOP,"[9]; Patient 1 Exfoliative Glaucoma of OD, OD, 5 hrs after one drop 0.4% solution, pre-treatment 48",30 mm of Hg
same,IOP,"[9]; Patient 1 Exfoliative Glaucoma of OD, OS, 2 hrs, pre-treatment 20",18 mm of Hg
same,IOP,"[9]; Patient 1 Exfoliative Glaucoma of OD, OS, 3 hrs, pre-treatment 20",14 mm of Hg
same,IOP,"[9]; Patient 1 Exfoliative Glaucoma of OD, OS, 4 hrs, pre-treatment 20",14 mm of Hg
same,IOP,"[9]; Patient 1 Exfoliative Glaucoma of OD, OS, 5 hrs, pre-treatment 20",14 mm of Hg
same,IOP,"[9]; Patient 2 Primary Open Angle Glaucoma, OD, 1 hr after one drop 0.4% solution, pre-treatment 34",30 mm of Hg
same,IOP,"[9]; Patient 2 Primary Open Angle Glaucoma, OD, 3 hrs, pre-treatment 34",26 mm of Hg
same,IOP,"[9]; Patient 2 Primary Open Angle Glaucoma, OD, 4 hrs, pre-treatment 34",22 mm of Hg
same,IOP,"[9]; Patient 2 Primary Open Angle Glaucoma, OD, 5 hrs, pre-treatment 34",22 mm of Hg
same,IOP,"[9]; Patient 2 Primary Open Angle Glaucoma, OS, 1 hr, pre-treatment 32",27 mm of Hg
same,IOP,"[9]; Patient 2 Primary Open Angle Glaucoma, OS, 3 hrs, pre-treatment 32",22 mm of Hg
same,IOP,"[9]; Patient 2 Primary Open Angle Glaucoma, OS, 4 hrs, pre-treatment 32",20 mm of Hg
same,IOP,"[9]; Patient 2 Primary Open Angle Glaucoma, OS, 5 hrs, pre-treatment 32",20 mm of Hg
same,IOP,"[9]; Patient 3 IOP Spike after Lens Extraction, OD, 2 hrs after one drop 0.4% solution, pre-treatment 30",20 mm of Hg
same,effect on IOP,[9],decreased IOP
same,effect on IOP,[9]; listed as tolbutamide,decrease TOP significantly
same,effect on intraocular pressure,[1],decreased IOP
Cc1ccc(S(=O)(=O)NC(=O)NN2CCCCCC2)cc1 [tolazamide],effect on intraocular pressure,[1],decreased IOP
